Data: patent publication EP0958822A1, “THE OCULAR HYPOTENSIVE ACTIVE COMPOSITIONS” (Lin, Tongho, priority 1996, dated 1998)

Tested on: New Zealand albino rabbits
Assay: IOP recovery after hypertonic saline infusion (ocular hypertensive rabbit model)
Type: in vivo
Details: 50 µl instilled in eye
Description: 1981, vol 13 pp72-79. New Zealand albino rabbits of either sex were used in the study. A 20 % hypertonic saline solution was infused at the speed of 1 ml […] for 10 minutes through the marginal ear vein with an infusion pump. […] Then the IOP of both eyes were measured with a Tono-Pen XL Tonometer (Mentor, Norwell , MA) at 30 minute and 10 minute intervals before the experiment. At the time of commencement, as well as at 10, 20, 40, 60, and 80 min intervals measurements were taken. Then measurements were repeated at every 30 minute intervals. […] The IOP recovery curve acquired had shifted to the right and below the curve of the controlled group.

CCN1CCCC1CNC(=O)c1cc(S(N)(=O)=O)ccc1OC (centres unmarked) [Sulpiride]
IOP recovery time (0.5% drop solution, 20 % hypertonic saline infusion): didn't show a significant ability in decreasing IOP
decreasing IOP (20% drop solution): it did so when the concentration was raised to 20%
